pIC50: −log10 of the molar value. Where two headings read alike, the source gives them in different places.
Key:
NET = target: T1, NET (Rattus norvegicus, UniProt Q9WTR4); assay: In vitro determination of NET reuptake inhibition ([3H]Nixosetine binding, rat brain cortex membranes)
T1 construct: Cortex from rat brain was collected and homogenised; from tissue; host or cells: rat brain cortex membranes
Method: Cortex from rat brain was collected and homogenised using an Ultra-Turrax T25 and a Dual homogeniser in ice-cold homogenising buffer containing Tris, NaCl and KCl (50 mM, 120 mM and 5 mM, respectively, pH 7.4) prior to dilution to an appropriate protein concentration optimised for specific and non-specific binding. […] Membrane-bound activity was detected by filtration through a Packard Filtermate harvester onto GF/B Unifilterplates, washed with ice-cold Tris-HCl buffer, containing NaCl and KCl (50 mM, 120 mM and 4 mM; pH 7.4; 6×0.5 ml). Filters were allowed to dry for 24 h before adding scintillation fluid. Scintillation fluid was allowed to saturate filters for 24 h before counting in a Topcount scintillation counter. Percentage specific bound and competition binding curves were calculated using S-Plus software (Insightful).

[1] = target: T2, human cloned 5-HT2C receptor, expressed in CHO cells (Homo sapiens, UniProt P28335); assay: In vitro radioligand binding affinity for 5-HT2C receptor ([3H]mesulergine); settings: for IC50: read-out: h-5HT2C (converted)
T2 construct: expressed in transfected cells; host or cells: CHO cells
T2 sequence (P28335 33-458): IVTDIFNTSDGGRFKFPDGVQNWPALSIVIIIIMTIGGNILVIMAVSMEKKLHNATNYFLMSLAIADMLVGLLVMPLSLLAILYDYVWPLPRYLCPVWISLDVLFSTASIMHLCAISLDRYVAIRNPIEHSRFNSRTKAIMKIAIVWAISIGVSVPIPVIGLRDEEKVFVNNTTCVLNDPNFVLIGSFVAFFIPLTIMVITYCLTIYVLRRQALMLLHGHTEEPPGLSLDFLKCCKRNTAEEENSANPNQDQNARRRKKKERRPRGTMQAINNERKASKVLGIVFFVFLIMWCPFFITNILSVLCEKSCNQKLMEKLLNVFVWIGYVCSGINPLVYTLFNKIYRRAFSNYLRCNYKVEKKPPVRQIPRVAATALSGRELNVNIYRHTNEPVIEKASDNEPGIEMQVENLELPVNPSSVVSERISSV
Method: The interaction of the compounds of Formula (I) with 5-HT2A and 5-HT2C receptors was assessed in in vitro radioligand binding experiments. […] During the incubation, the radioligands bind to the receptor. When equilibrium of binding is reached, the receptor bound radioactivity is separated from the non-bound radioactivity, and the receptor bound activity is counted. The interaction of the test compounds with the receptors is assessed in competition binding experiments. Various concentrations of the test compound are added to the incubation mixture containing the tissue preparation and the radioligand. Binding of the radioligand will be inhibited by the test compound in proportion to its binding affinity and its concentration.

[2] = target: T3, human cloned 5-HT2A receptor, expressed in L929 cells (Homo sapiens, UniProt P28223); assay: In vitro radioligand binding affinity for 5-HT2A receptor ([125I]R91150); settings: for IC50: read-out: h-5HT2A (converted)
T3 construct: expressed in transfected cells; host or cells: L929 cells
T3 sequence (P28223 whole entry): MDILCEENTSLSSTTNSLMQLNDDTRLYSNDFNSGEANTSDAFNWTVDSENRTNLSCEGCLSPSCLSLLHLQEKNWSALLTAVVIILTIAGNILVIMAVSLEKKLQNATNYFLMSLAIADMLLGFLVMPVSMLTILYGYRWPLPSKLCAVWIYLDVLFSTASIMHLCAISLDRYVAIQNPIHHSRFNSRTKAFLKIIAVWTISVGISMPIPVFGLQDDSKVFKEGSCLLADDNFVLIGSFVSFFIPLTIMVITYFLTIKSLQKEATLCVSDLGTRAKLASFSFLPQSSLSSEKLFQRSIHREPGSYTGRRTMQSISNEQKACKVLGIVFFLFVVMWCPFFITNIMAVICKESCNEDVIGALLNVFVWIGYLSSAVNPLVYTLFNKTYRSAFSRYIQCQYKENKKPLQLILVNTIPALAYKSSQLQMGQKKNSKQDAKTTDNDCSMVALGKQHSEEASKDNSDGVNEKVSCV
Method: The interaction of the compounds of Formula (I) with 5-HT2A and 5-HT2C receptors was assessed in in vitro radioligand binding experiments. In general, a low concentration of a radioligand with a high binding affinity for the receptor is incubated with a sample of a tissue preparation enriched in a particular receptor (1 to 5 mg tissue) in a buffered medium (0.2 to 5 ml). During the incubation, the radioligands bind to the receptor. When equilibrium of binding is reached, the receptor bound radioactivity is separated from the non-bound radioactivity, and the receptor bound activity is counted. The interaction of the test compounds with the receptors is assessed in competition binding experiments. Various concentrations of the test compound are added to the incubation mixture containing the tissue preparation and the radioligand. Binding of the radioligand will be inhibited by the test compound in proportion to its binding affinity and its concentration. The affinities of the compounds for the 5-HT2 receptors were measured by means of radioligand binding studies conducted with: (a) human cloned 5-HT2A receptor, expressed in L929 cells using [^125I]R91150 as radioligand and (b) human cloned 5-HT2C receptor, expressed in CHO cells using [^3H]mesulergine as radioligand.

[3] = target: T4, human Dopamine D2L receptor (Homo sapiens, UniProt P14416); assay: In vitro binding affinity for human D2L receptor ([3H]Spiperone); settings: human D2L receptor-transfected CHO cell membranes, [3H]Spiperone; for IC50: read-out: h-D2L (converted)
T4 construct: expressed in transfected cells; host or cells: CHO cells (frozen membranes)
T4 sequence (P14416 whole entry): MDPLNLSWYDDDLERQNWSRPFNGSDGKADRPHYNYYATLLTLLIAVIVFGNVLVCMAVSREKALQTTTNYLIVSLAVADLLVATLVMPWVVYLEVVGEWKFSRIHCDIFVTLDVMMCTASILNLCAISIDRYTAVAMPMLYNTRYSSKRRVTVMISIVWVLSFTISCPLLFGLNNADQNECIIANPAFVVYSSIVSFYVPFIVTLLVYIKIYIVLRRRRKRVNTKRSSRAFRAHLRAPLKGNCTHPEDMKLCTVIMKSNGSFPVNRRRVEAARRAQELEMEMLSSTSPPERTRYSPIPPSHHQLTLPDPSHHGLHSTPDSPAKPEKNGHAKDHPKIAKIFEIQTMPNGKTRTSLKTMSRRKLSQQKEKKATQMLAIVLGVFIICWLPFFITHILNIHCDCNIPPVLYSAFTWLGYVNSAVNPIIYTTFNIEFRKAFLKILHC
Method: Frozen membranes of human Dopamine D2L receptor-transfected CHO cells were thawed, briefly homogenised using an Ultra-Turrax T25 homogeniser and diluted in Tris-HCl assay buffer containing NaCl, CaCl2, MgCl2, KCl (50, 120, 2, 1, and 5 mM respectively, adjusted to pH 7.7 with HCl) to an appropriate protein concentration optimised for specific and non-specific binding. Radioligand [^3H]Spiperone (NEN, specific activity ˜70 Ci/mmol) was diluted in assay buffer at a concentration of 2 nmol/L. Prepared radioligand (50 μl), along with 50 μl of either the 10% DMSO control, Butaclamol (10-6 mol/l final concentration), or compound of interest, was then incubated (30 min, 37° C.) with 400 μl of the prepared membrane solution. Membrane-bound activity was filtered through a Packard Filtermate harvester onto GF/B Unifilterplates and washed with ice-cold Tris-HCl buffer (50 mM; pH 7.7; 6×0.5 ml). Filters were allowed to dry before adding scintillation fluid and counting in a Topcount scintillation counter. Percentage specific bound and competition binding curves were calculated using S-Plus software (Insightful).

[4] = human cloned 5-HT2C receptor in CHO cells, [3H]mesulergine
[5] = human cloned 5-HT2A receptor in L929 cells, [125I]R91150

T1 sequence (Q9WTR4 1-597): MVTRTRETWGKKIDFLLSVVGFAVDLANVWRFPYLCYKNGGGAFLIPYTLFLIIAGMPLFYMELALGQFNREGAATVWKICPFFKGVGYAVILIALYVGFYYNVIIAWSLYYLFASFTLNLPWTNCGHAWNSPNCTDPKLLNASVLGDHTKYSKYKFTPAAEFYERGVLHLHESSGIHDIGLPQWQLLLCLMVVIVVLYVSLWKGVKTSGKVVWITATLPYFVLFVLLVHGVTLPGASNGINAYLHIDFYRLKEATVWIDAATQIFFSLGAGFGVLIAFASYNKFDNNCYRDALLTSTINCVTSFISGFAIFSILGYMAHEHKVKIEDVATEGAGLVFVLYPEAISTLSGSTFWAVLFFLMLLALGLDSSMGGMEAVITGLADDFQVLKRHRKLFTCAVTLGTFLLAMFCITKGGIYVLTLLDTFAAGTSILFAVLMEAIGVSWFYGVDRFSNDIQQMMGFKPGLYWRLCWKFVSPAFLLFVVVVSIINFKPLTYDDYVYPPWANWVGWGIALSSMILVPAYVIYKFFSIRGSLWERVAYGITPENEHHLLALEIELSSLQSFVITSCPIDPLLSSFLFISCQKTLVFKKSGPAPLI

Structure (SMILES) | pIC50 (NET) | IC50 [1, 4] [nM] | IC50 [2, 5] [nM] | IC50 [3] [nM] | further results
Fc1ccc2c(c1)[C@H]1N[C@@H](CN3CCOCC3)C[C@@H]1c1ccccc1C2 [compound 42, (2R,3aR,12bS)-11-fluoro-2-(4-morpholinylmethyl)-1,2,3,3a,8,12b-hexahydrodibenzo-[3,4:6,7]cyclohepta[1,2-b]pyrrole] | 5.26 | 550 | 631 |  | 
COC(=O)N1[C@@H](CN(C)C)CC[C@@H]2c3ccccc3Cc3ccc(F)cc3[C@H]21 [compound 45, Methyl (2R,4aR,13bS)-2-[(dimethylamino)methyl]-12-fluoro-2,3,4,4a,9,13b-hexahydro-1H-dibenzo[3,4:6,7]cyclohepta[1,2-b]pyridine-1-carboxylate] | 6.10 | 2240 |  | > 10000 | 
CN1CC(=O)N2[C@@H](C[C@@H]3c4ccccc4Cc4ccc(F)cc4[C@H]32)C1 [compound 4, (5aS,14bR,15aS)-7-fluoro-2-methyl-1,2,3,5a,10,14b,15,15a-octahydro-4H-dibenzo [3′,4′:6′,7′]cyclohepta[1′,2′:4,5]pyrrolo[1,2-a]pyrazin-4-one] |  | > 1000 | > 1000 | > 1000 | NET Reuptake Inhibition (NET): <5
CN(C)C[C@@H]1C[C@@H]2c3ccccc3Cc3ccc(F)cc3[C@H]2S1(=O)=O [compound 22, [(2S,3aR,12bS)-11-fluoro-1,1-dioxido-3,3a,8, 12b-tetrahydro-2H-dibenzo[3,4:6,7]-cyclohepta[1,2-b]thien-2-yl]-N,N-dimethylmethanamine] | 5.32 | 1350 | 8510 |  | 
CN(C)C[C@H]1C[C@@H]2c3ccccc3Cc3ccc(F)cc3[C@H]2[S@+]1[O-] [compound 28, [(2R,3aR,12bS)-11-fluoro-1-oxido-3,3a,8,12b-tetrahydro-2H-dibenzo[3,4:6,7]cyclohepta[1,2-b]thien-2-yl]-N,N-dimethylmethanamine] | 6.84 | 1780 | 7760 |  | 
CN1C[C@H]2C[C@@H]3c4ccccc4Cc4ccc(F)cc4[C@H]3N2C1=O [compound 7] | 6.05 | > 1000 | > 1000 | > 1000 | 
CN1CC(=O)N2[C@H](C[C@@H]3c4ccccc4Cc4ccc(F)cc4[C@H]32)C1 [compound 13, (5aS,14bR,15aR)-7-fluoro-2-methyl-1,2,3,5a,10,14b,15,15a-octahydro-4H-dibenzo-[3′,4′:6′,7′]cyclohepta[1′,2′:4,5]pyrrolo[1,2-a]pyrazin-4-one] |  |  |  |  | NET Reuptake Inhibition (NET): <5; pIC50 [2]: 7.06
CN(CCO)C[C@H]1C[C@@H]2c3ccccc3Cc3ccc(F)cc3[C@H]2N1 [43b, 2-[{[(2R,3aR,12bS)-11-fluoro-1,2,3,3a,8,12b-exahydrodibenzo[3,4:6,7]cyclohepta[1,2-b]pyrrol-2-yl]methyl}(methyl)amino]-ethanol] |  |  |  |  | h-D2L [3]: 6.36; h-5HT2C [1, 4]: 7.05; h-5HT2A [2, 5]: 7.17
CN[C@@H]1CO[C@@H]2c3cc(F)ccc3Cc3ccccc3[C@H]2C1 (relative stereo) [compound 35, (3S*,4aR*,13bS*)-12-fluoro-N-methyl-2,3,4,4a,9,13b-hexahydrodibenzo[3,4:6,7]-cyclohepta[1,2-b]pyran-3-amine] | < 6.00 | 2630 |  |  | 
OCCN1CCN(C[C@H]2C[C@@H]3c4ccccc4Oc4ccc(F)cc4[C@H]3N2)CC1 [compound 19, 2-(4-{[(2R,3aR,12bS)-11-fluoro-2,3,3a,12b-tetrahydro-1H-dibenzo[2,3 :6,7]oxepino-[4,5-b]pyrrol-2-yl]methyl}-1-piperazinyl)ethanol] | < 5.00 | 4270 |  | 112 | 
CN(C)CC1CO[C@H]2c3cc(F)ccc3Cc3ccccc3[C@@H]12 (mixture of isomers) [compound 48, [(3aR,12bR)-11-fluoro-3,3a,8,12b-tetrahydro-2H-dibenzo[3,4:6,7]cyclohepta[1,2-b]-furan-3-yl]-N,N-dimethylmethanamine] | 6.65 | 3020 | 6170 |  | 
CN(C)C[C@H]1C[C@@H]2c3ccccc3Cc3ccc(F)cc3[C@H]2N1C [compound 5, [(2R,3aR,12bS)-11-fluoro-1-methyl-1,2,3,3a,8,12b-hexahydrodibenzo[3,4:6,7]cyclohepta[1,2-b]pyrrol-2-yl]-N,N-dimethylmethanamine] |  | 5.37 | 27.5 | 132 | 
O=C1CNC[C@H]2C[C@@H]3c4ccccc4Cc4ccc(F)cc4[C@H]3N12 [compound 12, (5aS,14bR,15aR)-7-fluoro-1,2,3,5a,10,14b,15,15a-octahydro-4H-dibenzo[3′,4′:6′,7′]-cyclohepta[1′,2′:4,5]pyrrolo[1,2-a]pyrazin-4-one] | 5.46 |  |  | 832 | pIC50 [1]: 7.23
CN(C)C[C@@H]1C[C@@H]2c3ccccc3Cc3ccc(F)cc3[C@H]2[S@+]1[O-] [compound 25, [(2S,3aR,12bS)-11-fluoro-1-oxido-3,3a,8,12b-tetrahydro-2H-dibenzo[3,4:6,7]cyclohepta[1,2-b]thien-2-yl]-N,N-dimethylmethanamine] | 5.54 | 2240 | > 10000 |  | 
OCCN1CCN(C[C@H]2C[C@@H]3c4ccccc4Cc4ccc(F)cc4[C@H]3N2)CC1 [43a, 2-(4-{[(2R,3aR,12bS)-11-fluoro-1,2,3,3a,8,12b-hexahydrodibenzo[3,4:6,7]cyclohepta-[1,2-b]pyrrol-2-yl]methyl}-1-piperazinyl)ethanol] | < 5.00 | 407 | 427 |  | 
CN(C)CC1CO[C@@H]2c3cc(F)ccc3Cc3ccccc3[C@@H]12 (mixture of isomers) [compound 47, [(3aR,12bS)-11-fluoro-3,3a,8,12b-tetrahydro-2H-dibenzo[3,4:6,7]cyclohepta[1,2-b]-furan-3-yl]-N,N-dimethylmethanamine] | 7.96 | 1580 | 3800 |  | 
OC1CCN(C[C@H]2C[C@@H]3c4ccccc4Oc4ccc(F)cc4[C@H]3N2)C1 (stereo partly drawn) [compound 20, 1-{[(2R,3aR,12bS)-11-fluoro-2,3,3a,12b-tetrahydro-1H-dibenzo[2,3:6,7]oxepino[4,5-b]pyrrol-2-yl]methyl}-3-pyrrolidinol] | 6.38 | 110 |  | 355 | 

Source: patent US20090023721A1, “Novel Substituted Tetracyclic Tetrahydrofuran, Pyrrolidine and Tetrahydrothiophene Derivatives and Their Use as a Medicament” (priority 2005, published 2009)
